Measured values as given in the NIST ThermoML archive (doi:10.1021/acs.jced.6b00178).
Where “and” joins values, the source holds several entries; their conditions need not be identical. Identical values can stand only once.

Experiments:
[1] = 100 kPa, Liquid; for viscosity: Concentric cylinders viscometry; for mass density: Vibrating tube method
[2] = xn = mol fraction of the nth substance listed; conditions: 100 kPa, Liquid, x1 = 1; for viscosity: Concentric cylinders viscometry; for mass density: Vibrating tube method

CCCC[n+]1ccn(C)c1.O=S(=O)([N-]S(=O)(=O)C(F)(F)F)C(F)(F)F
[1]
Conditions | mass density | viscosity
283.15 K | 1451.8 kg/m3 | 106.78 mPa·s and 106.77 mPa·s
288.15 K | 1446.9 kg/m3 | 82.14 mPa·s and 82.16 mPa·s
293.15 K | 1442.1 kg/m3 | 66.36 mPa·s and 64.53 mPa·s
298.15 K | 1437.2 kg/m3 | 51.58 mPa·s and 51.6 mPa·s
303.15 K | 1432.4 kg/m3 | 41.94 mPa·s and 41.93 mPa·s
308.15 K | 1427.6 kg/m3 | 34.6 mPa·s and 34.59 mPa·s
313.15 K | 1422.8 kg/m3 and 1422.9 kg/m3 | 29.48 mPa·s and 28.91 mPa·s
318.15 K | 1418.1 kg/m3 and 1418.2 kg/m3 | 24.47 mPa·s and 24.46 mPa·s
323.15 K | 1413.4 kg/m3 and 1413.5 kg/m3 | 20.93 mPa·s and 20.91 mPa·s
328.15 K | 1408.7 kg/m3 and 1408.8 kg/m3 | 18.07 mPa·s and 18.05 mPa·s
333.15 K | 1404.1 kg/m3 and 1404 kg/m3 | 15.95 mPa·s and 15.72 mPa·s
338.15 K | 1399.4 kg/m3 and 1399.3 kg/m3 | 13.83 mPa·s and 13.8 mPa·s
343.15 K | 1394.8 kg/m3 and 1394.7 kg/m3 | 12.23 mPa·s and 12.2 mPa·s
348.15 K | 1390.2 kg/m3 and 1390.1 kg/m3 | 10.9 mPa·s and 10.86 mPa·s
353.15 K | 1385.6 kg/m3 and 1385.5 kg/m3 | 9.985 mPa·s and 9.72 mPa·s
358.15 K | 1381.1 kg/m3 and 1381 kg/m3 | 8.806 mPa·s and 8.754 mPa·s
363.15 K | 1376.6 kg/m3 and 1376.4 kg/m3 | 7.98 mPa·s and 7.926 mPa·s

CCCC[n+]1ccn(C)c1.O=S(=O)([N-]S(=O)(=O)C(F)(F)F)C(F)(F)F + CCCCn1cc[n+](C)c1.N#C[S-]
[2]
Conditions | mass density [kg/m3] | viscosity [mPa·s]
283.15 K | 1451.8 | 106.78
288.15 K | 1446.9 | 82.14
293.15 K | 1442.1 | 66.36
298.15 K | 1437.2 | 51.58
303.15 K | 1432.4 | 41.94
308.15 K | 1427.6 | 34.6
313.15 K | 1422.9 | 29.48
318.15 K | 1418.2 | 24.47
323.15 K | 1413.5 | 20.93
328.15 K | 1408.8 | 18.07
333.15 K | 1404.1 | 15.95
338.15 K | 1399.4 | 13.83
343.15 K | 1394.8 | 12.23
348.15 K | 1390.2 | 10.9
353.15 K | 1385.6 | 9.985
358.15 K | 1381.1 | 8.806
363.15 K | 1376.6 | 7.98

CCCC[n+]1ccn(C)c1.O=S(=O)([N-]S(=O)(=O)C(F)(F)F)C(F)(F)F + CCCCn1cc[n+](C)c1.O=S(=O)([O-])C(F)(F)F
[2]
Conditions | mass density [kg/m3] | viscosity [mPa·s]
283.15 K | 1451.8 | 106.78
288.15 K | 1446.9 | 82.14
293.15 K | 1442.1 | 66.36
298.15 K | 1437.2 | 51.58
303.15 K | 1432.4 | 41.94
308.15 K | 1427.6 | 34.6
313.15 K | 1422.9 | 29.48
318.15 K | 1418.2 | 24.47
323.15 K | 1413.5 | 20.93
328.15 K | 1408.8 | 18.07
333.15 K | 1404.1 | 15.95
338.15 K | 1399.4 | 13.83
343.15 K | 1394.8 | 12.23
348.15 K | 1390.2 | 10.9
353.15 K | 1385.6 | 9.985
358.15 K | 1381.1 | 8.806
363.15 K | 1376.6 | 7.98

CCCCn1cc[n+](C)c1.COP(=O)([O-])OC [1-butyl-3-methyl-1H-imidazolium dimethylphosphate]
[1]
Conditions | mass density [kg/m3] | viscosity [mPa·s]
283.15 K | 1168.4 | 2315.6
288.15 K | 1164.9 | 1454.6
293.15 K | 1161.4 | 943.97
298.15 K | 1157.9 | 641.71
303.15 K | 1154.3 | 446.92
308.15 K | 1150.9 | 319.33
313.15 K | 1147.6 | 232.1
318.15 K | 1144.3 | 174.7
323.15 K | 1141 | 133.37
328.15 K | 1137.8 | 103.62
333.15 K | 1134.6 | 81.97
338.15 K | 1131.4 | 65.62
343.15 K | 1128.3 | 53.39
348.15 K | 1125.1 | 44.01
353.15 K | 1122 | 37.08
358.15 K | 1118.9 | 30.94
363.15 K | 1115.7 | 26.33

CC(=O)[O-].CCCCn1cc[n+](C)c1 [1-butyl-3-methylimidazolium acetate]
[1]
Conditions | mass density [kg/m3] | viscosity [mPa·s]
283.15 K | 1062.7 | 1013.4
288.15 K | 1059.4 | 645.6
293.15 K | 1056 | 421.35
298.15 K | 1052.8 | 292.57
303.15 K | 1049.7 | 206.68
308.15 K | 1046.6 | 150.08
313.15 K | 1043.5 | 110.79
318.15 K | 1040.5 | 85.03
323.15 K | 1037.5 | 66.07
328.15 K | 1034.5 | 52.29
333.15 K | 1031.5 | 42.29
338.15 K | 1028.5 | 34.38
343.15 K | 1025.6 | 28.48
348.15 K | 1022.6 | 23.88
353.15 K | 1019.7 | 20.63
358.15 K | 1016.7 | 17.35
363.15 K | 1013.9 | 15
